For data set [1], the target named is T1, GlyRα3 (Homo sapiens, UniProt O75311).
T1 construct: gene GLRA3; full-length, C-terminal thrombin site and 8x histidine tag, homopentamer in peptidisc (cryo-EM); full-length in Xenopus oocytes (TEVC)
T1 sequence (O75311 34-464): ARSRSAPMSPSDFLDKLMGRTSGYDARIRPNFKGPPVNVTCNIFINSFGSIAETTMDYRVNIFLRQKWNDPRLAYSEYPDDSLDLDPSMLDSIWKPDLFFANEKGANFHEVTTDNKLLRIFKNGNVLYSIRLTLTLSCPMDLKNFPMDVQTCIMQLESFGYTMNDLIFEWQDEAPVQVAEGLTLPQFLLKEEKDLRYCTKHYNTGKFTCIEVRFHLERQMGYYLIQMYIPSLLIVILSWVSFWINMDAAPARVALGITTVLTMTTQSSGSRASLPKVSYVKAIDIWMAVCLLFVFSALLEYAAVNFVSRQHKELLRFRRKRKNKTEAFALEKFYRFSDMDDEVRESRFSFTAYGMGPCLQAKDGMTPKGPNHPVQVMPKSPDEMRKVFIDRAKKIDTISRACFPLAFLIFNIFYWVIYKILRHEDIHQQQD
Nature of the data set: cryo-EM structures with glycine density; EC50 by two-electrode voltage clamp in Xenopus oocytes. Format: cell-based.

Data set [2] deals with the molecule itself. As to the kind of experiment: cryo-EM structure; GlyRα3 in peptidisc, 0.3 to 1 mg/ml, 20 mM Hepes, 150 mM NaCl, pH 8.0 or pH 6.4; 0.1 or 1 mM glycine, without or with 1 or 100 μM ZnCl2; final maps refined with C5 symmetry.

For orientation: EC50 means the concentration that produces a half-maximal response. A low value points to a more potent agent. On to `NCC(=O)O` [glycine], for which the EC50 in data set [1] is 213 ± 13 µM.

B1: full-length human GlyRα3 (receptor, UniProt O75311 34-464, looked up)
chain: T1 sequence (O75311 34-464)
notes: Glycine receptor subunit alpha-3, human, UniProt O75311, full-length codon-optimized GLRA3 gene; last residue printed as Asp431 on mature numbering; ICD Lys312-Arg385 not modelled in the maps; Homopentamer reconstituted in peptidisc (NSP peptide scaffold); the models are numbered without it; also called hGlyRα3; glycine receptor α3; source: Sf9 cells (baculovirus, pFastBac1), purified (DDM …)
By stoichiometry N is commonly meant a count of units in the complex or per binding partner. Regarding B1, the “stoichiometry N” value in data set [2] was 5.

(Values after publication PMC11654702, “Mechanisms underlying modulation of human GlyRα3 by Zn^2+ and pH” (Science Advances, 2024).)
